Laboratory results from PubChem BioAssay (NCI).
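Step 1: Grow cells in 96-well plates. Step 2: Expose to compound for 48 hours at 5 concentrations. Step 3: Interpolate endpoints linearly; if unreached, use highest concentration. TGI denotes the concentration required for complete inhibition of growth.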

Tests used:
Experiment in all cases: growth of human tumour cells (NCI), 48 h
786-0 renal = tested on: 786-0 renal
A498 renal = tested on: A498 renal
ACHN renal = tested on: ACHN renal
CCRF-CEM leukemia = tested on: CCRF-CEM leukemia
COLO 205 colon = tested on: COLO 205 colon
DU-145 prostate = tested on: DU-145 prostate
EKVX NSCLC = tested on: EKVX NSCLC
HCC-2998 colon = tested on: HCC-2998 colon
HCT-116 colon = tested on: HCT-116 colon
HCT-15 colon = tested on: HCT-15 colon
HL-60(TB) leukemia = tested on: HL-60(TB) leukemia
HOP-62 NSCLC = tested on: HOP-62 NSCLC
HT29 colon = tested on: HT29 colon
IGROV1 ovarian = tested on: IGROV1 ovarian
K-562 leukemia = tested on: K-562 leukemia
LOX IMVI melanoma = tested on: LOX IMVI melanoma
M14 melanoma = tested on: M14 melanoma
MALME-3M melanoma = tested on: MALME-3M melanoma
MDA-MB-231 breast = tested on: MDA-MB-231 breast
MDA-MB-435 = tested on: MDA-MB-435
MDA-N = tested on: MDA-N
MOLT-4 leukemia = tested on: MOLT-4 leukemia
NCI-H460 lung = tested on: NCI-H460 lung
NCI-H522 lung = tested on: NCI-H522 lung
NCI/ADR-RES ovarian = tested on: NCI/ADR-RES ovarian
OVCAR-3 ovarian = tested on: OVCAR-3 ovarian
OVCAR-4 ovarian = tested on: OVCAR-4 ovarian
OVCAR-5 ovarian = tested on: OVCAR-5 ovarian
OVCAR-8 ovarian = tested on: OVCAR-8 ovarian
PC-3 prostate = tested on: PC-3 prostate
RPMI-8226 leukemia = tested on: RPMI-8226 leukemia
SF-268 CNS = tested on: SF-268 CNS
SF-295 CNS = tested on: SF-295 CNS
SF-539 CNS = tested on: SF-539 CNS
SK-MEL-2 melanoma = tested on: SK-MEL-2 melanoma
SK-MEL-28 melanoma = tested on: SK-MEL-28 melanoma
SK-OV-3 ovarian = tested on: SK-OV-3 ovarian
SN12C renal = tested on: SN12C renal
SNB-19 CNS = tested on: SNB-19 CNS
SNB-75 CNS = tested on: SNB-75 CNS
SR leukemia = tested on: SR leukemia
SW-620 colon = tested on: SW-620 colon
T-47D breast = tested on: T-47D breast
TK-10 renal = tested on: TK-10 renal
U251 CNS = tested on: U251 CNS
UACC-257 melanoma = tested on: UACC-257 melanoma
UACC-62 melanoma = tested on: UACC-62 melanoma
UO-31 renal = tested on: UO-31 renal
A549 NSCLC = tested on: A549 NSCLC
CAKI-1 renal = tested on: CAKI-1 renal
HOP-92 NSCLC = tested on: HOP-92 NSCLC
HS 578T breast = tested on: HS 578T breast
MCF7 breast = tested on: MCF7 breast
NCI-H226 lung = tested on: NCI-H226 lung
NCI-H23 lung = tested on: NCI-H23 lung
RXF 393 renal = tested on: RXF 393 renal
SK-MEL-5 melanoma = tested on: SK-MEL-5 melanoma

CC1(C)CC[C@]2(C(=O)O)CC[C@]3(C)C(=CC[C@@H]4[C@@]5(C)CC[C@@H]6OC(C)(C)OC[C@@]6(C)[C@@H]5CC[C@]43C)[C@H]2C1
TGI (786-0 renal): 24 µM
TGI (A498 renal): 51.7 µM
TGI (ACHN renal): 15.7 µM
TGI (CCRF-CEM leukemia): 37.1 µM
TGI (COLO 205 colon): 28.8 µM
TGI (DU-145 prostate): 31.9 µM
TGI (EKVX NSCLC): 19.4 µM
TGI (HCC-2998 colon): 27.5 µM
TGI (HCT-116 colon): 20.9 µM
TGI (HCT-15 colon): 13.9 µM
TGI (HL-60(TB) leukemia): 32.9 µM
TGI (HOP-62 NSCLC): 22.9 µM
TGI (HT29 colon): 18.8 µM
TGI (IGROV1 ovarian): 30.2 µM
TGI (K-562 leukemia): 40.6 µM
TGI (LOX IMVI melanoma): 20.7 µM
TGI (M14 melanoma): 33.7 µM
TGI (MALME-3M melanoma): 25.6 µM
TGI (MDA-MB-231 breast): 12.9 µM
TGI (MDA-MB-435): 25.6 µM
TGI (MDA-N): 27 µM
TGI (MOLT-4 leukemia): 34.3 µM
TGI (NCI-H460 lung): 20 µM
TGI (NCI-H522 lung): 29 µM
TGI (NCI/ADR-RES ovarian): > 100 µM
TGI (OVCAR-3 ovarian): 18.5 µM
TGI (OVCAR-4 ovarian): > 100 µM
TGI (OVCAR-5 ovarian): 32.2 µM
TGI (OVCAR-8 ovarian): > 100 µM
TGI (PC-3 prostate): 19.1 µM
TGI (RPMI-8226 leukemia): 66 µM
TGI (SF-268 CNS): 36.5 µM
TGI (SF-295 CNS): 27.6 µM
TGI (SF-539 CNS): 33.5 µM
TGI (SK-MEL-2 melanoma): 32.6 µM
TGI (SK-MEL-28 melanoma): 29.2 µM
TGI (SK-OV-3 ovarian): 91.8 µM
TGI (SN12C renal): 13 µM
TGI (SNB-19 CNS): 96.2 µM
TGI (SNB-75 CNS): 27.7 µM
TGI (SR leukemia): 34 µM
TGI (SW-620 colon): 29 µM
TGI (T-47D breast): 38.8 µM
TGI (TK-10 renal): 32.7 µM
TGI (U251 CNS): 20.4 µM
TGI (UACC-257 melanoma): 31.8 µM
TGI (UACC-62 melanoma): 25.4 µM
TGI (UO-31 renal): 25.6 µM

COc1cc(OC)nc(NC(=O)NS(=O)(=O)c2cccc3ncn(C)c(=O)c23)n1
TGI (786-0 renal): > 100 µM
TGI (A498 renal): > 100 µM
TGI (A549 NSCLC): > 100 µM
TGI (ACHN renal): > 100 µM
TGI (CAKI-1 renal): > 100 µM
TGI (CCRF-CEM leukemia): > 100 µM
TGI (COLO 205 colon): > 100 µM
TGI (DU-145 prostate): > 100 µM
TGI (EKVX NSCLC): > 100 µM
TGI (HCT-116 colon): > 100 µM
TGI (HCT-15 colon): > 100 µM
TGI (HL-60(TB) leukemia): > 100 µM
TGI (HOP-62 NSCLC): > 100 µM
TGI (HOP-92 NSCLC): > 100 µM
TGI (HS 578T breast): > 100 µM
TGI (HT29 colon): > 100 µM
TGI (IGROV1 ovarian): > 100 µM
TGI (K-562 leukemia): > 100 µM
TGI (LOX IMVI melanoma): > 100 µM
TGI (M14 melanoma): > 100 µM
TGI (MALME-3M melanoma): > 100 µM
TGI (MCF7 breast): > 100 µM
TGI (MDA-MB-231 breast): > 100 µM
TGI (MDA-MB-435): > 100 µM
TGI (MDA-N): > 100 µM
TGI (MOLT-4 leukemia): > 100 µM
TGI (NCI-H226 lung): > 100 µM
TGI (NCI-H23 lung): > 100 µM
TGI (NCI-H522 lung): > 100 µM
TGI (NCI/ADR-RES ovarian): > 100 µM
TGI (OVCAR-3 ovarian): > 100 µM
TGI (OVCAR-4 ovarian): > 100 µM
TGI (OVCAR-5 ovarian): > 100 µM
TGI (OVCAR-8 ovarian): > 100 µM
TGI (RPMI-8226 leukemia): > 100 µM
TGI (RXF 393 renal): > 100 µM
TGI (SF-268 CNS): > 100 µM
TGI (SF-295 CNS): > 100 µM
TGI (SF-539 CNS): > 100 µM
TGI (SK-MEL-2 melanoma): > 100 µM
TGI (SK-MEL-5 melanoma): > 100 µM
TGI (SK-OV-3 ovarian): > 100 µM
TGI (SN12C renal): > 100 µM
TGI (SNB-19 CNS): > 100 µM
TGI (SNB-75 CNS): > 100 µM
TGI (SR leukemia): > 100 µM
TGI (SW-620 colon): > 100 µM
TGI (T-47D breast): > 100 µM
TGI (TK-10 renal): > 100 µM
TGI (U251 CNS): > 100 µM
TGI (UACC-257 melanoma): > 100 µM
TGI (UACC-62 melanoma): > 100 µM
TGI (UO-31 renal): > 100 µM
